Measurements reported in PubChem BioAssay AID1963871 (Molecular Pharmacology Branch, DTP, NCI, 2024).

Test system: KRAS-mutant PDC multicell tumor spheroid viability
Assay: Anticancer human tumor 521955-158-R2-J5-PDC patient-derived pancreatic carcinoma cell line growth inhibition [KRAS2]
Conditions: for IC50: curve of first compound; for viability, T/C: stronger effect = lower value
Summary of the method: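 Combination screen of spheroid viability in tumor-cell co-cultures with endothelial (HUVEC) and mesenchymal stem cell stroma. Each agent was tested in half-log dilutions, topping at clinical Cmax or at 10 microM without a known Cmax.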

[1] = second compound 0.1 µM, first compound 0.000316 µM
[2] = second compound 0.1 µM, first compound 0.001 µM
[3] = second compound 0.1 µM, first compound 0.00316 µM
[4] = second compound 0.1 µM, first compound 0.01 µM
[5] = second compound 0.1 µM, first compound 0.0316 µM
[6] = second compound 0.1 µM, first compound 0.1 µM
[7] = second compound 0.316 µM, first compound 0.000316 µM
[8] = second compound 0.316 µM, first compound 0.001 µM
[9] = second compound 0.316 µM, first compound 0.00316 µM
[10] = second compound 0.316 µM, first compound 0.01 µM
[11] = second compound 0.316 µM, first compound 0.0316 µM
[12] = second compound 0.316 µM, first compound 0.1 µM
[13] = second compound 1 µM, first compound 0.000316 µM
[14] = second compound 1 µM, first compound 0.001 µM
[15] = second compound 1 µM, first compound 0.00316 µM
[16] = second compound 1 µM, first compound 0.01 µM
[17] = second compound 1 µM, first compound 0.0316 µM
[18] = second compound 1 µM, first compound 0.1 µM
[19] = second compound 3.16 µM, first compound 0.000316 µM
[20] = second compound 3.16 µM, first compound 0.001 µM
[21] = second compound 3.16 µM, first compound 0.00316 µM
[22] = second compound 3.16 µM, first compound 0.01 µM
[23] = second compound 3.16 µM, first compound 0.0316 µM
[24] = second compound 3.16 µM, first compound 0.1 µM
[25] = second compound 10 µM, first compound 0.0316 µM
[26] = second compound 10 µM, first compound 0.1 µM
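Note: viability read after seven days of drug exposure.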

CN(C)C/C=C/C(=O)Nc1cc2c(Nc3ccc(F)c(Cl)c3)ncnc2cc1O[C@H]1CCOC1 + C=CC(=O)N1CCN(c2nc(OCC3CCCN3C)nc3c2CCN(c2cccc4cccc(C)c24)C3)CC1CC#N
IC50 (second compound 0.0316 µM): > 100 nM
IC50 (second compound 0.1 µM): > 100 nM
IC50 (second compound 0.316 µM): > 100 nM
IC50 (second compound 1 µM): > 100 nM
IC50 (second compound 3.16 µM): < 0.316 nM
viability, T/C (second compound 0.0316 µM, first compound 0.000316 µM): 97.5%
viability, T/C (second compound 0.0316 µM, first compound 0.001 µM): 104%
viability, T/C (second compound 0.0316 µM, first compound 0.00316 µM): 75.7%
viability, T/C (second compound 0.0316 µM, first compound 0.01 µM): 73.5%
viability, T/C (second compound 0.0316 µM, first compound 0.0316 µM): 67.9%
viability, T/C (second compound 0.0316 µM, first compound 0.1 µM): 65.6%
viability, T/C [1]: 83.5%
viability, T/C [2]: 89.3%
viability, T/C [3]: 98.8%
viability, T/C [4]: 70.5%
viability, T/C [5]: 76.7%
viability, T/C [6]: 72.4%
viability, T/C [7]: 77.8%
viability, T/C [8]: 73.2%
viability, T/C [9]: 65.9%
viability, T/C [10]: 56.7%
viability, T/C [11]: 54.7%
viability, T/C [12]: 53.6%
viability, T/C [13]: 73.5%
viability, T/C [14]: 85.1%
viability, T/C [15]: 70.4%
viability, T/C [16]: 65.1%
viability, T/C [17]: 58.8%
viability, T/C [18]: 54.4%
viability, T/C [19]: 4.17%
viability, T/C [20]: 3.27%
viability, T/C [21]: 1.28%
viability, T/C [22]: 1.27%
viability, T/C [23]: 0.96%
viability, T/C [24]: 0.29%

O=C(c1cc(Cc2n[nH]c(=O)c3ccccc23)ccc1F)N1CCN(C(=O)C2CC2)CC1 + C=CC(=O)N1CCN(c2nc(=O)n(-c3c(C)ccnc3C(C)C)c3nc(-c4c(O)cccc4F)c(F)cc23)C(C)C1
IC50 (second compound 0.1 µM): > 10000 nM
IC50 (second compound 0.316 µM): > 10000 nM
IC50 (second compound 1 µM): > 10000 nM
IC50 (second compound 3.16 µM): > 10000 nM
IC50 (second compound 10 µM): > 10000 nM
viability, T/C [5]: 115%
viability, T/C [6]: 120%
viability, T/C (second compound 0.1 µM, first compound 0.316 µM): 97.1%
viability, T/C (second compound 0.1 µM, first compound 1 µM): 89.6%
viability, T/C (second compound 0.1 µM, first compound 3.16 µM): 94.2%
viability, T/C (second compound 0.1 µM, first compound 10 µM): 64.8%
viability, T/C [11]: 122%
viability, T/C [12]: 110%
viability, T/C (second compound 0.316 µM, first compound 0.316 µM): 116%
viability, T/C (second compound 0.316 µM, first compound 1 µM): 103%
viability, T/C (second compound 0.316 µM, first compound 3.16 µM): 93.1%
viability, T/C (second compound 0.316 µM, first compound 10 µM): 77.7%
viability, T/C [17]: 122%
viability, T/C [18]: 115%
viability, T/C (second compound 1 µM, first compound 0.316 µM): 122%
viability, T/C (second compound 1 µM, first compound 1 µM): 103%
viability, T/C (second compound 1 µM, first compound 3.16 µM): 92.9%
viability, T/C (second compound 1 µM, first compound 10 µM): 73.5%
viability, T/C [23]: 99.1%
viability, T/C [24]: 109%
viability, T/C (second compound 3.16 µM, first compound 0.316 µM): 93.9%
viability, T/C (second compound 3.16 µM, first compound 1 µM): 102%
viability, T/C (second compound 3.16 µM, first compound 3.16 µM): 92.6%
viability, T/C (second compound 3.16 µM, first compound 10 µM): 68.9%
viability, T/C [25]: 63.5%
viability, T/C [26]: 61.9%
viability, T/C (second compound 10 µM, first compound 0.316 µM): 65.6%
viability, T/C (second compound 10 µM, first compound 1 µM): 66.2%
viability, T/C (second compound 10 µM, first compound 3.16 µM): 68.9%
viability, T/C (second compound 10 µM, first compound 10 µM): 43.4%

Cn1ncnc1[C@H]1c2n[nH]c(=O)c3cc(F)cc(c23)N[C@@H]1c1ccc(F)cc1 + CNCc1ccccc1-c1csc(C(C)Nc2nc(C)nc3cc(OC)c(OC)cc23)c1
IC50 (second compound 0.1 µM): > 100 nM
IC50 (second compound 0.316 µM): > 100 nM
IC50 (second compound 1 µM): > 100 nM
IC50 (second compound 3.16 µM): < 0.316 nM
IC50 (second compound 10 µM): < 0.316 nM
viability, T/C [1]: 101%
viability, T/C [2]: 94.8%
viability, T/C [3]: 84.5%
viability, T/C [4]: 80.2%
viability, T/C [5]: 81.7%
viability, T/C [6]: 81%
viability, T/C [7]: 104%
viability, T/C [8]: 81.2%
viability, T/C [9]: 82.1%
viability, T/C [10]: 76.7%
viability, T/C [11]: 81.8%
viability, T/C [12]: 80.3%
viability, T/C [13]: 114%
viability, T/C [14]: 119%
viability, T/C [15]: 112%
viability, T/C [16]: 93.8%
viability, T/C [17]: 91.5%
viability, T/C [18]: 89.6%
viability, T/C [19]: 2.53%
viability, T/C [20]: 1.22%
viability, T/C [21]: 2.97%
viability, T/C [22]: 1.01%
viability, T/C [23]: 0.7%
viability, T/C [24]: 0.26%
viability, T/C (second compound 10 µM, first compound 0.000316 µM): 0.78%
viability, T/C (second compound 10 µM, first compound 0.001 µM): 0.71%
viability, T/C (second compound 10 µM, first compound 0.00316 µM): 0.43%
viability, T/C (second compound 10 µM, first compound 0.01 µM): 0.21%
viability, T/C [25]: 0.16%
viability, T/C [26]: 1.36%
